Tests used:
[1] = tested on: patients with lung diseases including COPD; assay: Comparison of inhaled salts of pyruvate, 5 ml of 0.5 mM solution (Table I)
[2] = tested on: COPD patients with Allergic Rhinitis; assay: 20 mM sodium pyruvate nasal sprays over three months (Table VI); type: in vivo, human; conditions: 20 mM nasal spray
[3] = tested on: patients with sinus & lung diseases including IPF and COPD; assay: Salts of pyruvate as 20 mM nasal sprays (Table IX)
From the text: They never tested the individual salts for their ability to reduce inflammation or increase lung functions.

[4] = tested on: patients with sinus & lung diseases including IPF and COPD; assay: 20 mM sodium pyruvate nasal sprays with individual or combined ions (Table X); type: in vivo, human
From the text: This patent combined dozens of ingredients, including the use of enzyme, growth factors, sugars, nucleotide and vitamins, amino acids and sodium pyruvate, other nutrients and calcium chloride, magnesium chloride and calcium phosphate other ingredients to stimulate the growth of cartilage and collagen for knees and joints.

[5] = tested on: patients with Allergic Rhinitis other lung diseases; assay: Two-year log of 367 patients using the 20 mM sodium pyruvate nasal spray (Table XIII); type: in vivo, human; conditions: healthy patients with no underlying diseases; 20 mm in at least 0.9% sodium chloride
Procedure: Table XIII. 367 patients over a two-year period. Each patient was provided with a log page to record the effect of inhaled 20 mM sodium pyruvate surfactant enhancer formula. The FDA has recommended that we do a phase three clinical for Allergic Rhinitis for patients where steroids are counter indicated i.e. Children, pregnant women and diabetics. Percentage measurements in patients with Allergic Rhinitis other lung diseases. 20 mM sodium pyruvate formula in 0.9% saline […] was inhaled. Overall rating was 1-10 with 1 being the most negative and 10 being the best result. The increase in nasal and lung surfactants and nasal and lung nitric oxide inhibited the docking and adhesion of viruses in the patients listed below with especially in patients with diabetes or hypoxemia. All these viruses including coronavirus, the flu (influenza A or B) and rhinovirus were unable to dock on the ACE2 type receptor and reduced the rate, severity, duration and spread of the viruses.

[6] = tested on: Asthmatic and COPD patients; assay: Phase I/II clinical trials of sodium pyruvate in saline by inhalation; type: in vivo, human
[7] = tested on: isolated perfused rat lungs; assay: Incorporation of [2-(14)C] labeled pyruvate into lung surfactants; conditions: inhalation studies, without calcium, phosphate and magnesium
[8] = tested on: patients with or without lung damage; assay: Controlled inhalation studies of 20 mM sodium pyruvate in saline; type: in vivo, human
Procedure: Sodium chloride is mainly used as nasal or lung moisturizer. […] They produce no change to FEV-1 or SaO2 measurements. It must be noted that there is a difference between people who have transient hypoxemia vs. one that has permanent hypoxemia. The patients respond differently to the inhalation of 20 mM sodium pyruvate in saline by itself without calcium, phosphate and magnesium. Sodium pyruvate formulations both given orally or by inhalation will increase SaO2 levels in people without lung injury to the alveoli structure especially the mitochondria that can synthesis the phospholipids needed for oxygen exchange and uptake. Transient hypoxemia is a self-correcting effect. It occurs in over exercising, mountain climbing etc. […] In patients with infections, i.e. CF and allergic Rhinitis, Nitric Oxide increase by over 400% over base line measurements with the use of the sodium pyruvate, calcium, phosphate and magnesium formula, needed to fight infections and lung cancer (see table IV).

[9] = tested on: patients with lung diseases including COPD; assay: Comparison of inhaled salts of pyruvate, 5 ml of 5 mM solution (Table II)
[10] = 5 ml of 0.5 mM solution, inhaled
[11] = 20 mM (0.22%) nasal spray in 0.9% sodium chloride
[12] = 20 mM sodium pyruvate nasal spray in saline with the listed ions
[13] = 5 ml of the 0.5 mM solution in saline

CC(=O)C(=O)[O-].[Na+] [Sodium, sodium pyruvate]
Increased in FEV-1% lung function ([1]; 5 ml of 0.5 mM solution in physiological saline, inhaled): 13.0% | Irritation [1, 10]: none | Percentage Increase in SaO2 over baseline [1, 10]: 0.5% | Percentage decrease or increase of Nitric Oxide over baseline [1, 10]: −19.0% | Relief of congestion, coughing and lung tightness [1, 10]: 5 | Overall Rating 1-10 ([1]; 5 ml of 0.5 mM solution, 1 most negative, 10 best): 8 | FEV1 ([1]; 5 mls of a 0.5 mM pyruvate inhalation solution in COPD and asthmatic patients): ≥ 12% | Overall Rating 1-10 [2]: 7 | Percentage decrease in COPD symptoms [2]: 18.0% | Percentage decrease in us of RX medications [2]: 20% | Rating 1-10 Congestion and lung tightness [2]: 5 | Rating 1-10 decrease in shortness of breath [2]: 6.0 | Relief of coughing. Percentage Daily decrease [2]: 15% | Increased in FEV-1% [3, 11]: 12.0% | Irritation [3, 11]: none | Percentage Increase in SaO2 over baseline [3, 11]: 2% | Percentage increase of Nitric Oxide over baseline [3, 11]: 19.0% | Relief of congestion, coughing and lung tightness [3, 11]: 6 | Overall Rating 1-10 ([3]; 20 mM (0.22%) nasal spray, 1 most negative, 10 best): 7 | Increased in FEV-1% [4, 12]: 12.0% | Irritation [4, 12]: None | Percentage Increase in SaO2 over baseline [4, 12]: 2% | Percentage increase of Nitric Oxide over baseline [4, 12]: 20.0% | Relief of congestion, coughing and lung tightness [4, 12]: 6 | Overall Rating 1-10 ([4]; 1 most negative, 10 best): 7 | amount of flu or colds reduced [5]: 52% | duration of the infection symptoms in days reduced [5]: 56% | increasing FEV1 values [6, 13]: over 12% | reducing nitric oxide [6, 13]: 19.2% | FEV1 values ([6]; higher concentrations 1.5 mM or 5.0 mM in saline): did not increase FEV1 values | increase nitric oxide levels ([6]; solutions of 1.5 to 5 mM): 19% | incorporation into synthesized phospholipids [7]: not incorporated into synthesized phospholipids | SaO2 levels ([8]; Patients with lung damage, like in smokers, 20 mM without calcium, phosphate and magnesium): did not show an increase SaO2 levels | increase of SaO2, average ([8]; patients with no lung injuries or disease, after exercising, 20 mM in saline): 3% | Increased in FEV-1% ([9]; 5 ml of 5 mM solution in saline, inhaled): 2.0% | Irritation ([9]; 5 ml of 5 mM solution, inhaled): none | Percentage Increase in SaO2 over baseline ([9]; 5 ml of 5 mM solution, inhaled): 1% | Percentage increase of Nitric Oxide over baseline ([9]; 5 ml of 5 mM solution, inhaled): 19.0% | Relief of congestion, coughing and lung tightness ([9]; 5 ml of 5 mM solution, inhaled): 5 | Overall Rating 1-10 ([9]; 5 ml of 5 mM solution, 1 most negative, 10 best): 8

Reference: patent US11628186B2, “Method and composition for the reduction of viral replication, duration and spread of the COVID-19 and the flu” (priority 2017, dated 2023)
